Structures are written as SMILES.

Common to all, as to type: cell-based
One experiment concerns Rac GTPase. In words: Rac GTPase activity, p21 Rac-binding domain assay. To be noted: HGF 10 ng/mL or Sph-1-P 1 μM for 1 or 5 min.
For experiment [1], the system named is Bovine Pulmonary Artery Endothelium. In words: Transendothelial electrical resistance (TER) across bovine pulmonary artery endothelium. The following applies: VEGF 100 ng/ml, Sph 1-P 1 μM, HGF 20 ng/ml. Here is the method:
Bovine pulmonary artery endothelial cells were purchased from the American Type Culture Collection (ATCC®, Rockville, Md.) and utilized at passage 19-24. Cells were maintained in Medium 199 (Life Technologies, Rockville, Md.) supplemented with 20% (v/v) colostrum-free bovine serum (CFBS) (Irvine Scientific, Santa Ana, Calif.), 15 μg/ml endothelial cell growth supplement (Upstate Biotechnology, Lake Placid, N.Y.), 1% antibiotic and antimycotic, and 0.1 mM non-essential amino acids (Life Technologies). Human pulmonary artery endothelial cells were purchased from Clonetics (Walkersville, Md.), cultured in EBM-2 complete medium (Clonetics) and utilized at passage 5-10. Human alveolar epithelial cells (A549) were purchased from ATCC® and cultured in the same medium as the bovine endothelial cells, except that the endothelial cell growth supplement was omitted. All cells were maintained at 37° C. in a humidified atmosphere of 5% CO2 and 95% air.
Electrical resistance of EC monolayers was measured using electrical cell impedance sensor system (Applied Biophysics Inc., Troy, N.Y.) as described in Garcia, J. G. N. et al. (2000) J. Appl. Physiol. 89:2333-2343. Cells grown on gold microelectrodes (10^−3 cm^2) in polycarbonate wells act as insulating particles, and the resistance across the monolayers (transendothelial electrical resistance, or TER) is measured in real time. As cells adhere on the microelectrode and intercellular cell contacts are formed or in response to agents which increase junctional integrity, the TER increases (Garcia, J. G. N. et al. (2001) J. Clin. Invest. 108:689-711). In contrast, cell retraction, rounding, or loss of adhesion is reflected by decreases in TER (Garcia, J. G. N. et al. (2000) J. Appl. Physiol. 89:2333-2343). These measurements provide a highly sensitive biophysical assay that indicates the state of cell shape, focal adhesion, and endothelial barrier function (Giaever, I. and Keese, C. R. (1993) Nature 366:591-592; Tiruppathi, C. et al. (1992) Proc. Natl. Acad. Sci. USA 89:7919-7923). All electrical resistance data are presented as normalized values. Briefly, current was applied across the electrodes by a 4000 Hz AC voltage source with an amplitude of 1 V in series with a 1 MΩ resistance to approximate a constant current source (−1 μA). The small gold electrode and the larger counter electrode (1 cm^2) were connected to a phase-sensitive lock-in amplifier (5301A; EG&G Instruments Corp, Princeton, N.J.) with a built in differential preamplifier (5316A; EG&G Instruments Corp.). The in-phase and out-of-phase voltages between the electrodes were monitored in real time with the lock-in amplifier and converted to scalar measurements of transendothelial impedance, of which resistance was the primary focus. […] For some experiments, total TER was vectorially resolved into components reflecting resistance to current flow beneath the cell layer (α) and resistance to current flow between adjacent cells (Rb) as described in Garcia et al. (2000) supra utilizing the method of Giaiver and Keese which models the endothelial monolayer mathematically (Giaever, I. and Keese, C. R. (1993) Nature 366:591-592). Thus, changes in α reflect alterations in the net state of cell-matrix adhesion, whereas changes in Rb reflect alterations in the integrity of cell-cell adhesion. TER values from each microelectrode were pooled at discrete time points and plotted versus time as the mean±standard error of the mean (Garcia et al. (2000) supra).

The subject of experiment [2] is human alveolar epithelial cells (A549). In words: Electrical resistance of A549 alveolar epithelial cells on gold microelectrodes. To be noted: HGF 100 ng/mL; sphingosine 1-phosphate 1 μM. Here is the method:
FIGS. 1A-1D depict HGF-mediated increases in human transendothelial electrical resistance (TER). FIG. 1A: Human pulmonary artery endothelial cells were grown to confluence on gelatinized gold microelectrodes. Two hours prior to TER measurement, growth medium was replaced with serum-free M199. Serial-diluted HGF was added to cells at indicated concentrations and TER monitored for 2.5 hr. […] The result shown is a representative TER tracing of three independent experiments. FIG. 1B: Similar to FIG. 1A, human alveolar epithelial cells (A549) were grown on gold microelectrodes and challenged with vehicle, HGF, (100 ng/mL) or sphingosine 1-phosphate (1 μM). […]
Electrical resistance of EC monolayers was measured using electrical cell impedance sensor system (Applied Biophysics Inc., Troy, N.Y.) as described in Garcia, J. G. N. et al. (2000) J. Appl. […] Cells grown on gold microelectrodes (10^−3 cm^2) in polycarbonate wells act as insulating particles, and the resistance across the monolayers (transendothelial electrical resistance, or TER) is measured in real time. […] The in-phase and out-of-phase voltages between the electrodes were monitored in real time with the lock-in amplifier and converted to scalar measurements of transendothelial impedance, of which resistance was the primary focus. […]

Where [3] appears, read: vs vehicle control, ±SEM, thrombin 100 μM.

Description for Rac GTPase: Endothelial cells grown in 100 mm dishes were incubated with agonists in serum-free M199. Cells were lysed in 500 μl Mg^2+ lysis buffer (Upstate Biotechnology, Lake Placid, N.Y.) and homogenized by pipetting. After a brief centrifugation to remove the cell debris, 300 μl of supernatant was incubated with the agarose-conjugated p21-binding domain (PBD) of human PAK-1 (10 μg, 30 min, Upstate Biotechnology). The agarose beads were washed with 1 ml of lysis buffer 5 times and re-suspended in 30 μl of 2×SDS buffer. After 10 min centrifugation at 14,000 g, 15 μl of supernatant from each sample was subjected to electrophoresis in 15% PAGE. […] For total Rac protein measurement, 5 μl of the original cell lysates were used for electrophoresis and western analysis. […] Pulmonary artery endothelial cells were incubated with HGF (10 ng/mL) or Sph-1-P (1 μM) for 1 or 5 min. Cells were lysed, supernatants collected, and activated GTP-bound Rac was precipitated by agarose-conjugated human PAK-1 p21-binding domain and subsequently immunoblotted by anti-Rac mAb. Total Rac protein was detected using cell lysates.

On to `CCCCCCCCCCCCC/C=C/[C@@H](O)[C@@H](N)COP(=O)(O)O` [Sph 1-P, sphingosine 1-phosphate, reference compound], for which the Rac activity entry in the experiment with Rac GTPase was “rapidly and transiently increases Rac activity”. Also, the “TER response in words” value in experiment [1] (thrombin, 10-60 min) was “brisk and sustained increase in TER”. Besides, in experiment [1] (setting [3]), the “changes in TER 30 min” value is recorded as “+50 ± 6%” and the “changes in TER 60 min” value is reported as “+35 ± 4%”. Besides, the “changes in TER 10 min” value in experiment [1] (vs vehicle control, ±SEM, thrombin 100 μM, (+) increased, (−) decreased) was “+50 ± 5%”. In addition, the “effect on electrical resistance of epithelial cells” value in experiment [2] is recorded as “did enhance epithelial cell integrity”.

Source of the values: patent publication US20050004029A1, “Methods and compositions for treating vascular leak using hepatocyte growth factor” (priority 2001, published 2005).
